Assay results: patent publication US20090263410A1, “USE OF TGF-B1 INHIBITOR PEPTIDES IN THE PREPARATION OF AN IMMUNE RESPONSE MODULATING AGENT” (Proyecto De Biomedicina Cima, S.L., priority 2005, published 2009)
Entries after “also recorded” stand apart in the source; their conditions may differ.

Assays:
[1] = tested on: CT26 cells; assay: Tumour growth of subcutaneous CT26 in AH1-immunized mice treated with peptides; type: in vivo, balb-c mice
Procedure: GROUPS: 4 groups of 7 female balb-c mice, of 6 weeks old/group.
AH1+FIA s.c.+p144 (50 μg i.p./dose/mouse) AH1+FIA s.c.+p17(1-11) (50 μg i.p./dose/mouse) DESIGN: AH1+FIA: […]; Peptides: from day −6 on alternate days until day 10: Tumour model volume: Each 3 days from day 10 to day 41. Challenge on day 0 with CT26 (500000 cells/mouse s.c. in the flank).
REDUCTION IN THE MEAN TUMOUR VOLUME BY GROUPS TREATED WITH PEPTIDES: The effect of peptides p144 and p17(1-11)Am was studied in a tumour progression model. In this model, mice were immunized with 50 μg of AH1 10 days before the administration of 5×10^5 CT26 cells. In order to verify the effect of blocking the TGF-β1 on the protection against CT tumour cells, another two groups of mice were treated on alternate days by intraperitoneal route between days 6 and 10 (50 μg/mouse/48 h) with peptides p144 and p17(1-11)Am. […] This protection reached 100% of the animals in the case of p144 (FIG. 16).

[2] = tested on: RAd-LacZ; assay: Induction of anti-RAd LacZ antibodies (ELISA) after immunization with heat-inactivated adenovirus; type: in vivo, BALB/c mice
Procedure: To analyse the immunomodulating effect of peptide p144 on the humoral response, female BALB/c mice (Harlan, Barcelona) were used, of between 6 and 8 weeks old. For the induction of specific antibodies, recombinant adenovirus (RAd-LacZ) inactivated by heat in a bath at 100° C. for 10 minutes was inoculated.
Three mice were immunized per group, by the intraperitoneal of a mixture of 200 μl which contained 1×10^8 pfu of the inactivated RAd-LacZ adenovirus, physiological serum (PS) or with […] of peptide p144, all emulsified in Freund's complete adjuvant (FCA) in a 1:1 volumetric ratio as indicated in table M4. Thirty days after the first immunization, the animals were reimmunized with the same mixture, but emulsified in Freund's incomplete adjuvant (FIA). Blood samples were taken from the retroorbital plexus on days 15 and 45 to quantify the anti-adenovirus antibodies generated in each animal.
In order to study the possible induction of antigen intolerance in the mice treated with p144, on day 50 after the I^st injection, the mice were inoculated intravenously with 4×10^8 pfu of active RAd-LacZ in 100 μl of RPMI-1640, including a new group of mice (cont iv), which had only received the intravenous dose of active LacZ adenovirus. Blood samples were taken after 7 days in all groups. Next, the animals were sacrificed to include liver samples in OCT® (Tissue-Tek®, SAKURA, the Netherlands) to the subsequent evaluation of LacZ expression in the liver.
The detection of antibodies in serum against RAd-LacZ was performed by ELISA assays using Maxisorp® flat-bottomed 96-well plates (Nunc, Roskilde, Denmark), based on the streptavidin-biotin system using 2,2′-azino-bis-3-ethylbenzthiazoline-6-sulphonic acid (ABTS) as developer. The plates were incubated throughout the night at 4° C. with 50 μl per well of a solution of 75 μl of RAd-LacZ 10^10 pfu/ml in 10 ml 0.1 M Na2CO3 (pH=10.5). […] 100 μl per well were added and after one hour the plate was read at 405 nm in a Multiskan Plus MKII reader (Labsystem, Helsinki, Finland).

[3] = tested on: CT26 cells; assay: Subcutaneous CT26 tumour model after AH1 immunization; type: in vivo, BALB/c mice; conditions: 50 μg AH1 day 0; 5×10^5 CT26 s.c. day 10; day 10-30 PS or 50 μg p144 every 48 hours i.p.
Procedure: Next, the effect of p144 was studied on a tumour progression model which was less aggressive than the intravenous administration of CT26. In this new model, mice were immunized with 50 μg of AH1 on day 0 and ten days later they were administered 5×10^5 CT26 cells by subcutaneous route. Furthermore, with the aim of testing the effect of blocking TGF-β1 on protection against CT26 tumour cells, another two groups of mice (groups 2 and 3) were treated on alternate days by intraperitoneal route between days 10-30 with 50 μg of p144.

[4] = tested on: CT26 cells; assay: Pulmonary metastasis model (intravenous CT26), survival; type: in vivo, BALB/c mice; conditions: 5×10^5 CT26 i.v. on day 10; 50 μg AH1 in FIA s.c. day 0; p144 50 μg i.p. alternate days, days 4-20 or 10-20
Text: It is speculated that the neutralization of TGF-β1, once the immune response has been induced, could have a beneficial effect on the evolution thereof.
It is known from previous experience that immunization with only DTc AH1 produced a certain delay in the appearance of tumours after the intravenous administration of CT26 cells. For this reason, in a survival experiment, the inclusion of p144 was compared at different times after immunization with AH1. Thus, the animals in group (i) just received the administration of CT26 cells, the animal groups (ii), (iii) and (iv) were immunized on day 0 by subcutaneous route with 50 μg of AH1 in FIA (Freund's incomplete adjuvant) and they were then administered 5×10^5 CT26 cells by intravenous route on day 10. Group (iii) further received 50 μg of p144 in 500 μl of PS (physiological serum) by intraperitoneal route on alternate days between days 4 and 20. Group (iv), as with group (iii), received 50 μg of p144 in 500 μl of PS by intraperitoneal route on alternate days, only between days 10 and 20.

p144: peptide inhibiting TGF-β1 whose amino acid sequence corresponds to SEQ ID NO: 1 (TSLDASIIWAMMQN; Synthetic Construct from human TGB-Beta1 type III receptor.Domain730-743)
tumour growth ([1]; 50 μg/mouse/48 h i.p. between days 6 and 10, s.c. CT26 on day 0, AH1 immunization 10 days before): protection against tumour growth; also recorded: delay tumour growth
protection against tumour growth, share of animals ([1]; measured on day 42 after subcutaneous administration of tumour cells): 100%
antibody titer after intravenous infection with active RAd LacZ ([2]; 7 days after 4×10^8 pfu RAd LacZact i.v., no p144 at challenge, versus group immunized without p144): approximately equalled
anti-RAd LacZ antibody production after first immunization ([2]; day 15, RAd LacZinact in presence or absence of p144, ELISA): no quantifiable effect
antibody titer against RAd LacZ after second immunization ([2]; p144 50 μg in immunization mixture, versus inactivated RAd LacZ only): clearly lower
Animals protected on day 50 [3]: 4/10
survival / mortality [4]: reinforces the survival effect
